Source: publication PMC12382614, “(Oxidopyridyl)Porphyrins of Different Lipophilicity: Photophysical Properties, ROS Production and Phototoxicity on Melanoma Cells Under CoCl2-Induced Hypoxia” (Antioxidants, 2025)
“And” between values parts separate entries of the source, which are not always exact repeats. Identical values can stand only once. Like-named read-outs stand apart in the source and are kept apart here.

Key:
[1] = UV-Vis absorption spectra in MeOH; format: physicochemical
Procedure: (§1) The absorption spectra of (oxidopyridyl)porphyrins were recorded in HPLC grade MeOH on a Cary UV 60 (Agilent Technologies, Santa Clara, CA, USA), in a wavelength range of 300–700 nm. The fluorescence spectra in HPLC grade MeOH were recorded on a Cary Eclipse (Agilent Technologies) in a wavelength range of 500–800 nm after excitation at the Soret band wavelength (λ ~ 420 nm). The slits of the spectrometer were set to a bandpass of 5 nm for the excitation and 5 nm for the emission. To calculate the fluorescence quantum yields, the measurements were conducted on an FS5 Edinburgh Instruments spectrometer. Prior to taking the measurements, the solutions were purged with high-purity N2 for at least 15 min. The absorbance of the solutions was set to A < 0.1 at 405 nm and 550 nm, which settings were used for the excitation process. Emission was recorded from 550 to 800 nm, with slits set to the bandpass corresponding to 2 nm for the excitation, and 3 nm for the emission. Fluorescence quantum yield (ΦFL) was calculated in comparison to the tetraphenylporphyrin (TPP; ΦFL = 0.11 [23]) as a standard, according to Equation (S1) and following an equation previously described elsewhere.

[2] = Fluorescence spectra and fluorescence quantum yield in MeOH; format: physicochemical
Procedure: as §1

[3] = Fluorescence decay by time-correlated single-photon counting (TC-SPC); format: physicochemical; conditions: MeOH, N2, λex 405 nm
Procedure: Time-correlated single-photon counting (TC-SPC) was used to obtain information about fluorescence decays. All measurements were performed on an FS5 Edinburgh Instruments device with a pulsed laser at 405 nm wavelength, which was used for the excitation process (pulse duration 60 ps). Fluorescence signals were monitored at 660 nm over 1023 channels, with a time increment of ≈49 ps/channel. Porphyrins were dissolved in MeOH (HPLC grade), with the absorbance adjusted to 0.1 a.u. at the excitation wavelength, and the solution was degassed with N2 for 15 min before the measurements were taken. All the decays were collected until they reached 3000 counts in the peak channel. A scattering solution, a silica gel suspension in H2O, was used to obtain the instrument response function (IRF). The histograms were analysed using a nonlinear least-squares deconvolution method via the software implemented with the instrument.

[4] = tested on: MeWo cells; assay: Intracellular localisation by fluorescence microscopy with DIOC6(3); format: cell-based, human; conditions: 5 µM in medium, 6 h
Procedure: In the localisation tests, the cells were incubated with porphyrins and DIO6(3), a marker for mitochondria and endoplasmic reticulum (ER), which was used to investigate the colocalisation of porphyrins with the mentioned organelles. All images were analysed using the ImageJ program, while Pearson’s correlation coefficient was calculated using the CellSense program, fluorescence microscope software produced by Olympus.
To determine any potential preference for the ER and mitochondria, the localisation of (oxidopyridyl)porphyrins substituted with an alkyl chain of 9, 13 and 17 C atoms was observed by fluorescence microscopy incubation with 3,3′-dihexyloxacarbocyanine iodide (DIOC6(3)), a marker that is commonly used to target vesicle membranes, mitochondria and ER [39].

[5] = tested on: A375; assay: Photocytotoxicity, MTT assay; format: cell-based, human; conditions: red light 643 nm 30 min; for IC50: Homo sapiens, A-375, light or radiation study, 6 h incubation
Procedure: (§2) For (photo)cytotoxicity assays, stock solutions of porphyrins were prepared in DMSO and dissolved in DMEM to the final concentrations. The porphyrin incubation time was 6h. Irradiation of the cells was with red light (λ = 643 nm) for 30 min (light dose, 3.6 J/cm^2). Nonirradiated cells were used to test the dark toxicity. All measurements were performed in three individual experiments, and the results are shown as the proliferation (%) of the cells and were calculated as IC50 values.
(§3) The cytotoxicity of (oxidopyridyl)porphyrins was assessed by an MTT assay on the HDF, MeWo and A375 cell lines after 6 h of incubation with porphyrins, without irradiation, or after 30 min of irradiation with red light (λ = 643 nm), and under conditions of normoxia or hypoxia. To induce hypoxia, 100 µM of CoCl2 was added at least two hours before the porphyrins. […] Oxygen is also one of the substrates for the activity of prolyl hydroxylases; therefore, in both cases, the result is the blockage of hydroxylation of HIF-1α and, consequently, its increase and stabilisation, which, in the case of CoCl2-induced hypoxia, can be maintained for several hours.

[6] = tested on: HDF; assay: Photocytotoxicity, MTT assay; format: cell-based, human; conditions: for IC50: Homo sapiens, HDF, light or radiation study, 6 h incubation, red light 643 nm 30 min
Procedure: as §2, §3

[7] = tested on: MeWo; assay: Photocytotoxicity, MTT assay; format: cell-based, human; conditions: red light 643 nm 30 min; for IC50: Homo sapiens, MeWo, light or radiation study, 6 h incubation
Procedure: as §2, §3

[8] = tested on: HDF, MeWo and A375 cell lines; assay: (Photo)cytotoxicity MTT assay, statements made for all cell lines; format: cell-based, human; conditions: Homo sapiens, light or radiation study; irradiation 643 nm, with or without CoCl2; read-out: IC50 in all the tested cells
Procedure: as §2, §3

## CCCCCCCCCCCCCCCCCC(=O)Nc1ccc(-c2c3nc(c(-c4ccc[n+]([O-])c4)c4ccc([nH]4)c(-c4ccc[n+]([O-])c4)c4nc(c(-c5ccc[n+]([O-])c5)c5ccc2[nH]5)C=C4)C=C3)cc1 [TOPyP3-C17H35, 5-(4-Octadecanamidophenyl)-10,15,20-tris(1-oxido-3-pyridyl)porphyrin]
[1]
  ε Qx (0-0): 1600 M⁻¹ cm⁻¹
  ε Qx (1-0): 4500 M⁻¹ cm⁻¹
  ε Qy (0-0): 4300 M⁻¹ cm⁻¹
  ε Qy (1-0): 15000 M⁻¹ cm⁻¹
  ε Soret (B): 275400 M⁻¹ cm⁻¹
  λabs Qx (0-0): 646 nm
  λabs Qx (1-0): 587 nm
  λabs Qy (0-0): 547 nm
  λabs Qy (1-0): 512 nm
  λabs Soret (B): 417 nm
[2]
  Stokes shift: 2 nm
[2]; N2-purged, TPP as reference
  ΦFL (fluorescence quantum yield): 0.047 ± 0.002
[2]; excitation at Soret band
  λFL Q(0,0): 648 nm
  λFL Q(0,1): 713 nm
[3]
  contribution of τ1 (% of the decay): 1%
  contribution of τ2 (% of the decay): 99%
  τFL, longer decay time τ2: 7.82 ± 0.02 ns and 7.82 ns
  τFL, short decay time τ1: 0.57 ± 0.08 ns and 0.57 ns
[4]
  solubility (porphyrin not internalised, aggregates outside the cells): low solubility
[5]; 3.6 J/cm^2, 100 μM CoCl2 at least 2 h before porphyrin, read-out: IC50 A375 CoCl2
  IC50: 940 ± 150 nM
[5]; 3.6 J/cm^2, normoxia, read-out: IC50 A375 No CoCl2
  IC50: 770 ± 80 nM
[5]; CoCl2-induced hypoxia
  SI (IC50 (HDF) / IC50 (melanoma cells)) A375 100 µM CoCl2: 1.2
[5]; normoxia
  SI (IC50 (HDF) / IC50 (melanoma cells)) A375 No CoCl2: 1.7
[6]; 1 µM, irradiation 643 nm, normoxia
  reduction in the proliferation of cells: ~ 40%
[6]; 3.6 J/cm^2, 100 μM CoCl2 at least 2 h before porphyrin, read-out: IC50 HDF CoCl2
  IC50: 1090 ± 290 nM
[6]; 3.6 J/cm^2, normoxia, read-out: IC50 HDF No CoCl2
  IC50: 1310 ± 570 nM
[7]; 3.6 J/cm^2, 100 μM CoCl2 at least 2 h before porphyrin, read-out: IC50 MeWo CoCl2
  IC50: 680 ± 190 nM
[7]; 3.6 J/cm^2, normoxia, read-out: IC50 MeWo No CoCl2
  IC50: 660 ± 140 nM
[7]; CoCl2-induced hypoxia
  SI (IC50 (HDF) / IC50 (melanoma cells)) MeWo 100 µM CoCl2: 1.6
[7]; normoxia
  SI (IC50 (HDF) / IC50 (melanoma cells)) MeWo No CoCl2: 2.0
[8]
  IC50: ≤ 1000 nM
